Experimental data published in patent US20090137658A1, “BENZENESULFONIC ACID SALT COMPOUNDS” (Tanabe Seiyaku Co.,Ltd., priority 2003, published 2009).
Entries after “also recorded” stand apart in the source; their conditions may differ.

Columns and labels:
Assay type in all cases: physicochemical
[1] = Hygroscopicity / deliquescence of crystalline salts at elevated relative humidity
Text: This is exemplified by the hygroscopicity of the crystalline hydrochloride (HCl) salt of trans-4-({2-[(2S)-2-cyanopyrrolidinyl]-2-oxoethyl}amino)-N,N-dimethylcyclohexanecarboxamide. […] That is, the benzenesulfonic acid salts of the present invention sorb much lower amounts of water when exposed to a broad range of humidities and can be prepared in a physically stable crystal form, thus enhancing their suitability as medicaments.

[2] = Moisture sorption testing of besylate monohydrate salt (integrated gas flow microbalance)
Procedure: Moisture sorption was measured with an integrated gas flow microbalance system. Approximately 20 mg of 4-({2-[(2S)-2-cyanopyrrolidinyl]-2-oxoethyl}amino)-N,N-dimethylcyclohexanecarboxamide besylate monohydrate salt was weighed into a sample pan of an integrated gas flow microbalance system (SGA100, VTI Corporation). The sample was dried at 60° C. under a dry nitrogen stream until the rate of weight loss was less than 0.015% in 5 minutes. After drying the sample was equilibrated at 25° C. and the relative humidity increased stepwise (adsorption) to 5, 15, 25, 35, 45, 55, 65, 75, 85 and 95% Each relative humidity step was held until the sample equilibrated at that condition. Equilibrium was defined as a weight change of less than 0.015% in 5 minutes. The relative humidity was then decreased step wise (desorption) to 90, 80, 70, 60, 50, 40, and 20% Each step was held until equilibrium was reached. The equilibrium condition was the same as in the sorption phase. The % w/w increase or decrease in moisture content of the sample is reported for each equilibrated RH condition.

[3] = Infrared (IR) studies of hydration/dehydration of besylate monohydrate
Procedure: The partially dehydrated form of the monohydrate Form 1 of Formula I is stable for at least 24 hours at room temperature and partial hydration to the monohydrate of Formula I can be recovered at higher relative humidity (RH).
Samples of trans-4-({2-[(2S)-2-cyanopyrrolidinyl]-2-oxoethyl}amino)-N,N-dimethylcyclohexane-carboxamide besylate monohydrate either as a pure solid or diluted in KBr powder were placed inside a FTIR spectrometer purged under dry N2 at room temperature (RT). […] Upon re-exposure of the partially dehydrated samples to the atmosphere for <1 min., the intensities of these IR bands are fully recovered. The FTIR spectrum of this experiment is in FIG. 4.

[4] = Moisture sorption testing of besylate anhydrate salt (integrated vacuum microbalance); conditions: in the presence of water vapour, such as at elevated relative humidity
Procedure: Moisture sorption was measured with an integrated vacuum microbalance system. Approximately 11 mg of 4-({2-[(2S)-2-cyanopyrrolidinyl]-2-oxoethyl}amino)-N,N-dimethylcyclohexanecarboxamide besylate anhydrate salt was weighed into a sample pan of an integrated vacuum microbalance system (MB300G, VTI Corporation). The sample was dried at 60° C. under vacuum until the rate of weight loss was less than 0.015% in 2 minutes. After drying the sample was equilibrated at 25° C. and the relative humidity increased stepwise (adsorption) to 15, 25, 35, 45, 55, 65, 75, 85 and 95% Each relative humidity step was held until the sample equilibrated at that condition. Equilibrium was defined as a weight change of less than 0.015% in 2 minutes. The relative humidity was then decreased step wise (desorption) to 90, 80, 70, 60, 50, 40, 30 and 20% Each step was held until equilibrium was reached. The equilibrium condition was the same as in the sorption phase. The % w/w increase or decrease in moisture content of the sample is reported for each equilibrated RH condition.

[5] = purged under dry N2 at room temperature

In the case of `CN(C)C(=O)[C@H]1CC[C@H](NCC(=O)N2CCC[C@H]2C#N)CC1.Cl` (relative stereo) [HCl salt, trans-4-({2-[(2S)-2-cyanopyrrolidinyl]-2-oxoethyl}-amino)-N,N-dimethylcyclohexanecarboxamide hydrochloride], the time to deliquesce ([1]; 25° C., relative humidities greater than 75%) is reported as “approximately 20 hours” and the time to deliquesce ([1]; 40° C., relative humidities of greater than 75%) is reported as “approximately 24 hours”.

In the case of `CN(C)C(=O)[C@H]1CC[C@H](NCC(=O)N2CCC[C@H]2C#N)CC1` [Form 1, trans-4-({2-[(2S)-2-cyanopyrrolidinyl]-2-oxoethyl}amino)-N,N-dimethylcyclohexanecarboxamide benzenesulfonate monohydrate], the water absorbed ([2]; relative humidity between 0% and 95% at 25° C.) is reported as “less than 10 % w/w”, the “additional water sorbed by the monohydrate” value ([2]; up to 95% relative humidity, on top of monohydrate water content) is reported as 1-2 % w/w and the “desorption of adsorbed water” value ([2]; when the relative humidity is decreased) is reported as “readily desorbs”. For the same compound, the “re-exposure time to the atmosphere after which IR bands are fully recovered” value ([3]; partially dehydrated samples re-exposed to the atmosphere) was less than 1 min, the “time to reach dehydration equilibrium (IR bands of H2O)” value [3, 5] was roughly 30 min and the “time within which IR bands assigned to H2O decreased very rapidly” value [3, 5] was no more than 10 min. For the same compound, the “stability of the partially dehydrated form” value ([3]; room temperature) was “at least 24 hours”, the “dehydration (loss of water)” value ([3]; room temperature, purged with or exposed to dried air or dry nitrogen (low relative humidity), benzenesulfonate monohydrate) was “loses water readily; also recorded: partial dehydration of the hydrate is facile” and the “re-hydration of the dehydrated form” value ([3]; upon exposure to atmospheric humidity / higher relative humidities, benzenesulfonate monohydrate) was “re-hydration occurs rapidly; also recorded: re-hydration to the monohydrate occurs very rapidly”.

In the case of `CN(C)C(=O)C1CCC(NCC(=O)N2CCC[C@H]2C#N)CC1.O=S(=O)(O)c1ccccc1` (stereo partly drawn) [Form 2, trans-4-({2-[(2S)-2-cyanopyrrolidinyl]-2-oxoethyl}amino)-N,N-dimethylcyclohexanecarboxamide besylate anhydrate], the “conversion of anhydrate form” value [4] is reported as “converts to the hydrate”.
